Source: article PMC10394814, “Discovery and evaluation of active compounds from Xuanfei Baidu formula against COVID-19 via SARS-CoV-2 M^pro” (Chinese Medicine, 2023)
Where two headings read alike, the source gives them in different places.

How the values were obtained:
[1] = target: T1, SARS-CoV-2 M^pro (Severe acute respiratory syndrome coronavirus 2, UniProt P0DTD1); test: FRET screening of SARS-CoV-2 M^pro inhibitors; format: biochemical; details: for inhibition at 40 µM: read-out: inhibition rate; for IC50: n = 5
Procedure: FRET screening was carried out for identifying the inhibitors of SARS-CoV-2 M^pro. […] The screening system was established by employing M^pro (200 nM), substrate (20 µM), and the tested compounds with the different concentrations from 0.039 to 160 µM. The excitation and emission wavelength were set at 320 and 405 nm, separately. The data was analyzed with Graphpad prism 9.0 and all experiments were performed in triplicates.

[2] = target: T1, SARS-CoV-2 M^pro; test: SPR binding affinity to M^pro (Biacore T200, CM5 chip); details: for kon / koff: kinetic mode; for kon: read-out: Ka (association rate constant); for koff: read-out: Kd (dissociation rate constant)
Procedure: SPR assay. Biacore T200 system was used for SPR assay. M^pro was conjugated to a sensor Chip (CM5) via amino coupling reaction. The tested compounds were diluted with the running buffer (1.05 × PBS-P, 5% DMSO) to reach the working concentration of 0.977–500 µM, being injected into the channels at a flow rate of 30 µL/min. The coupling time and the dissociation time were respectively set at 60 s and 120 s or 180 s. The data were analyzed for fitting the equilibrium dissociation constant (KD).

[3] = target: T1, SARS-CoV-2 M^pro; test: ITC measurement of binding to M^pro; details: ITC at 298 K
[4] = in vitro; format: cell-based; details: African green monkey
Procedure: Vero E6 (ATCC, CRL-1586) cells (1 × 10^4 cells/well) were maintained in a 96-well plate for 12 h. All cells were cultured in complete medium composed of Dulbecco’s Modified Eagle Medium (DMEM) (Gibco, USA), 10% (v/v) serum, 100 U/mL penicillin, and 100 µg/mL streptomycin. The diluted solutions of the tested compounds (200 µL) at the concentrations of 100, 80, 60, 40, 20, 10, and 5 µM were added to wells and incubated for another 24 or 48 h, respectively. At the terminus period of incubation, 50 µL MTT (2.5 mg/mL) was added to each well and continuously incubated at 37 ℃ for 4 h. After disposal of the liquid supernatant, 150 µL DMSO was added to each well, whose absorbance was detected at 490 nm via Microplate Reader (TECAN SunriseTM, China). Cytotoxicity was calculated as follows: Cell viability (%) = (ODexperiment-ODBlank)/(ODcontrol-ODBlank) × 100%. The data were analyzed with GraphPad Prism 9.0. All experiments were performed in triplicates.

[5] = tested on: mice; details: cited from earlier work
[6] = kinetic mode (physcion: affinity mode)

| SMILES | inhibition at 40 µM [1] [%] | IC50 ([1]; with 0.01% Triton X-100) [µM] | IC50 ([1]; without Triton X-100) [µM] | Kd [2, 6] [µM] | kon [2] [M⁻¹ s⁻¹] | koff [2] [s⁻¹] | N (binding stoichiometry) [3] | ΔS (entropy variation) [3] [cal/mol/deg] | CC50 [4] [µM] | safe dose [5] | Kd [2] [µM] |
| --- | --- | --- | --- | --- | --- | --- | --- | --- | --- | --- | --- |
| C[C@@H]1O[C@@H](O[C@@H]2[C@@H](O)[C@H](OCCc3ccc(O)c(O)c3)O[C@H](CO)[C@H]2OC(=O)/C=C/c2ccc(O)c(O)c2)[C@H](O)[C@H](O)[C@H]1O [Acteoside] | > 90 | 1.93 ± 0.76 | 2.53 ± 1.02 | 4.67 | 847 | 0.00396 | 0.48 | 27.3 | > 100 | up to 800 mg/kg |  |
| COc1c(/C=C/C(=O)c2ccc(O)c(CC=C(C)C)c2)ccc(O)c1O [Licochalcone D] | > 90 | 29.5 | 5.54 | 4.87 | 2810 | 0.0137 |  |  |  |  |  |
| COc1cc(O)c2c(c1)C(=O)c1cc(C)cc(O)c1C2=O [Physcion] | > 90 | 31.6 ± 25.6 | 22.1 ± 3.01 |  |  |  |  |  |  |  | 167 |
| CCCCC/C=C\C/C=C\CCCCCCCC(=O)O [Linoleic acid, Linoleic Acid] | > 90 | 43 ± 1.93 |  |  |  |  |  |  |  |  | 10.8 |
| COc1c(/C=C/C(=O)c2ccc(O)cc2)ccc(O)c1O [Licochalcone B] | > 90 | 5.12 ± 1.53 | 4.24 ± 1.03 | 5.64 | 2210 | 0.0125 |  |  |  |  |  |
